Consider 2 molecules from article PMC12300041, “Tricyclic Isatin Derivatives as Anti-Inflammatory Compounds with High Kinase Binding Affinity” (Molecules, 2025).

The test system of assay [1] is NF-κB/AP-1 transcriptional activity. Briefly: LPS-induced NF-κB/AP-1 reporter (secreted alkaline phosphatase) in THP-1Blue cells. Format: cell-based, human. The following applies: 250 ng/mL LPS, N.A.: not active at the highest tested concentration (50 μM), read-out: AP Production (THP-1 Cells) IC50. The method, then:
Human THP-1Blue monocytic cells stably transfected with a secreted embryonic alkaline phosphatase gene that is under control of a NF-κB/AP-1-inducible promoter were obtained from InvivoGen (San Diego, CA, USA). These cells were cultured in RPMI 1640 medium (Mediatech Inc., Herndon, VA, USA) containing 10% (v/v) fetal bovine serum (FBS), 100 μg/mL streptomycin, 100 U/mL penicillin, 100 μg/mL phleomycin (Zeocin), and 10 μg/mL blasticidin S (all from Sigma-Aldrich, St. Louis, MO, USA).
After incubation of THP-1Blue cells (2 × 10^5 cells/well) with test compounds or control DMSO (1% final concentration) for 30 min, 250 ng/mL of lipopolysaccharide (LPS; from Escherichia coli strain 0111:B4) was added, and the cells were incubated for 24 h. Secreted alkaline phosphatase activity was assessed in the cell supernatants using the QUANTI-Blue mix (InvivoGen; absorbance at 655 nm) and compared with positive controls treated with LPS alone. Compound concentrations that inhibited 50% of the NF-κB reporter activity (IC50) were determined.

In a further assay the test system is IL-6 production. In words: LPS-induced IL-6 production in MonoMac-6 cells (ELISA). Format: cell-based. The following applies: Homo sapiens, MONO-MAC-6, 24 h, N.A.: not active at the highest tested concentration (50 μM). The method, then:
Human MonoMac-6 monocyte/macrophage cells (Deutsche Sammlung von Mikroorganismen und Zellkulturen GmbH, Braunschweig, Germany) were cultured in RPMI 1640 medium containing 10% (v/v) FBS, 10 μg/mL bovine insulin, 100 μg/mL streptomycin, and 100 U/mL penicillin.
An IL-6 ELISA kit (BD Biosciences, San Jose, CA, USA) was used to assess the effect of selected compounds on IL-6 production. MonoMac-6 cells were plated in 96-well plates at a density of 2 × 10^5 cells/well in culture medium supplemented with 3% (v/v) endotoxin-free FBS. Cells were pretreated with test compound or DMSO for 30 min, followed by addition of 200 ng/mL LPS for 24 h. For selected compounds, the IC50 for cytokine production was calculated by plotting percentage inhibition against the logarithm of inhibitor concentration (at least five points).
(ELISA stands for enzyme-linked immunosorbent assay.)

A further assay has as its target T1, DAPK2 (Homo sapiens, UniProt Q9UIK4).
T1 construct: purchased Eurofins Pharma Discovery (KINOMEscan)
Briefly: KINOMEscan. It is filed as binding. The following applies: for Kd: DAPK2, N.B.: no binding at concentrations up to 30 µM. On the procedure: (§1) Kinase profiling was performed by KINOMEscan (Eurofins Pharma Discovery, San Diego, CA, USA), using a panel of 423 protein kinases, as described previously. Compounds were submitted for dissociation constant (Kd) determination toward several target kinases using KINOMEscan. […] Binding reactions were performed at room temperature for 1 h, and the fraction of kinase not bound to the test compound was determined by capture with an immobilized affinity ligand and quantified by quantitative polymerase chain reaction. The primary screening at fixed concentrations of the compound was performed in duplicate. For dissociation constant Kd determination, a 12-point half-log dilution series (a maximum concentration of 33 μM) was used.

For the next assay, the target named is T2, IRAK1 (Homo sapiens, UniProt P51617).
T2 construct: purchased Eurofins Pharma Discovery (KINOMEscan)
Briefly: KINOMEscan. Format: binding. The method, then: as §1

In another assay the target is T3, PIM1 (Homo sapiens, UniProt P11309).
T3 construct: purchased Eurofins Pharma Discovery (KINOMEscan)
In words: KINOMEscan. It is filed as binding. Conditions: for Kd: PIM1, N.B.: no binding at concentrations up to 30 µM. The method, then: as §1

The next assay deals with T4, HIPK3 (Homo sapiens, UniProt Q9H422).
T4 construct: purchased Eurofins Pharma Discovery (KINOMEscan)
Briefly: KINOMEscan. Format: binding. Conditions: for Kd: HIPK3, N.B.: no binding at concentrations up to 30 µM. The method, then:
as §1

The target in another assay is T5, DAPK1 (Homo sapiens, UniProt P53355).
T5 construct: purchased Eurofins Pharma Discovery (KINOMEscan)
Briefly: KINOMEscan. It is filed as binding. Conditions: for Kd: DAPK1, N.B.: no binding at concentrations up to 30 µM. The method, then: as §1

In another assay the target is T6, DAPK3 (Homo sapiens, UniProt O43293).
T6 construct: purchased Eurofins Pharma Discovery (KINOMEscan)
In words: KINOMEscan. Format: binding. Conditions: for Kd: DAPK3, N.B.: no binding at concentrations up to 30 µM. The method, then:
as §1

The target of the next assay is T7, HIPK2 (Homo sapiens, UniProt Q9H2X6).
T7 construct: purchased Eurofins Pharma Discovery (KINOMEscan)
In words: KINOMEscan. It is filed as binding. The following applies: for Kd: HIPK2, N.B.: no binding at concentrations up to 30 µM. The method, then:
as §1

Assay [2] relates to proinflammatory cytokine production. In words: Multiplex human cytokine ELISA, LPS-stimulated MonoMac-6 cells. It is filed as cell-based. Conditions: 10 μM compound, 24 h, versus DMSO-treated control. From the text: A multiplex human cytokine ELISA kit from Anogen (Mississauga, ON, Canada) was used to evaluate various cytokines (IL-1α, IL-1β, IL-6, GM-CSF, MCP-1, IFN-γ, and TNF) in the supernatants of MonoMac-6 cells.

The mark [3] stands for this setting: IRAK1, N.B.: no binding at concentrations up to 30 µM.

Molecules are shown by their SMILES. Where two headings read alike, the source gives them in different places.

T5 sequence (P53355 whole entry): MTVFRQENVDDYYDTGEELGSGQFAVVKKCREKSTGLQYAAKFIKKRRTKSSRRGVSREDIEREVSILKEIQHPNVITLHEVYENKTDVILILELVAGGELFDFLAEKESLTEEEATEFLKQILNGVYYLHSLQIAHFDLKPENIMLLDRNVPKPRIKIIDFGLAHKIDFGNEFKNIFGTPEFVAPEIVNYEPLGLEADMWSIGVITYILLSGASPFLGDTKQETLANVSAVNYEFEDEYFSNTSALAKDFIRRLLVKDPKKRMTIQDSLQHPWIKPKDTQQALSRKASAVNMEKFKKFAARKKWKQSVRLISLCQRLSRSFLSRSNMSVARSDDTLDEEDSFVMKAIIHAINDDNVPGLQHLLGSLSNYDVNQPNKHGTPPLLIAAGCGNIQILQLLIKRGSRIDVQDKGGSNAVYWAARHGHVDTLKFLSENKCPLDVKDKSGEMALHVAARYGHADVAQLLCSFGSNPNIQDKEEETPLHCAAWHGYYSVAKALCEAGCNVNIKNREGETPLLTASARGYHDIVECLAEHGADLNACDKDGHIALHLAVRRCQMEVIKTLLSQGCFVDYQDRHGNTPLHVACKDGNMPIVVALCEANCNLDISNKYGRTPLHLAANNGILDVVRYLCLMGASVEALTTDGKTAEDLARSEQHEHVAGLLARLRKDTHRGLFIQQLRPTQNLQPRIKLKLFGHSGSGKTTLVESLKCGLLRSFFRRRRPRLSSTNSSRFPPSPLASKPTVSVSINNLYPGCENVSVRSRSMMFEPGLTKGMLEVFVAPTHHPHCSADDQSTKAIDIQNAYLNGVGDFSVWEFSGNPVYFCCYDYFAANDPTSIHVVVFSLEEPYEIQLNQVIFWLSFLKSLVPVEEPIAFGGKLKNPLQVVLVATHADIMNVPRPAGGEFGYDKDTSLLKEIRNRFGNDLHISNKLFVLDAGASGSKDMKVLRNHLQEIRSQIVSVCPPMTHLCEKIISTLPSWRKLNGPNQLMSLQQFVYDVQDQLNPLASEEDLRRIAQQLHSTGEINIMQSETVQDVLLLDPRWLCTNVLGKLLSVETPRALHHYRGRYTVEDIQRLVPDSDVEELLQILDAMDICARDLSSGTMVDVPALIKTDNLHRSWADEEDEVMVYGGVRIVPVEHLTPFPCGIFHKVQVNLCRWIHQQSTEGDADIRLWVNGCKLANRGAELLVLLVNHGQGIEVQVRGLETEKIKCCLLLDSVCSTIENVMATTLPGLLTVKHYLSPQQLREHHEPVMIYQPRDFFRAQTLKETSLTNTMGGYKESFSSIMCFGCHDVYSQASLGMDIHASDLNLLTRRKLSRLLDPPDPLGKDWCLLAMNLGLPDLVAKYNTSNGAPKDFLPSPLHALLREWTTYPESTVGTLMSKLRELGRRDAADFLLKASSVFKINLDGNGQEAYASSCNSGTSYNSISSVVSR
T4 sequence (Q9H422 whole entry): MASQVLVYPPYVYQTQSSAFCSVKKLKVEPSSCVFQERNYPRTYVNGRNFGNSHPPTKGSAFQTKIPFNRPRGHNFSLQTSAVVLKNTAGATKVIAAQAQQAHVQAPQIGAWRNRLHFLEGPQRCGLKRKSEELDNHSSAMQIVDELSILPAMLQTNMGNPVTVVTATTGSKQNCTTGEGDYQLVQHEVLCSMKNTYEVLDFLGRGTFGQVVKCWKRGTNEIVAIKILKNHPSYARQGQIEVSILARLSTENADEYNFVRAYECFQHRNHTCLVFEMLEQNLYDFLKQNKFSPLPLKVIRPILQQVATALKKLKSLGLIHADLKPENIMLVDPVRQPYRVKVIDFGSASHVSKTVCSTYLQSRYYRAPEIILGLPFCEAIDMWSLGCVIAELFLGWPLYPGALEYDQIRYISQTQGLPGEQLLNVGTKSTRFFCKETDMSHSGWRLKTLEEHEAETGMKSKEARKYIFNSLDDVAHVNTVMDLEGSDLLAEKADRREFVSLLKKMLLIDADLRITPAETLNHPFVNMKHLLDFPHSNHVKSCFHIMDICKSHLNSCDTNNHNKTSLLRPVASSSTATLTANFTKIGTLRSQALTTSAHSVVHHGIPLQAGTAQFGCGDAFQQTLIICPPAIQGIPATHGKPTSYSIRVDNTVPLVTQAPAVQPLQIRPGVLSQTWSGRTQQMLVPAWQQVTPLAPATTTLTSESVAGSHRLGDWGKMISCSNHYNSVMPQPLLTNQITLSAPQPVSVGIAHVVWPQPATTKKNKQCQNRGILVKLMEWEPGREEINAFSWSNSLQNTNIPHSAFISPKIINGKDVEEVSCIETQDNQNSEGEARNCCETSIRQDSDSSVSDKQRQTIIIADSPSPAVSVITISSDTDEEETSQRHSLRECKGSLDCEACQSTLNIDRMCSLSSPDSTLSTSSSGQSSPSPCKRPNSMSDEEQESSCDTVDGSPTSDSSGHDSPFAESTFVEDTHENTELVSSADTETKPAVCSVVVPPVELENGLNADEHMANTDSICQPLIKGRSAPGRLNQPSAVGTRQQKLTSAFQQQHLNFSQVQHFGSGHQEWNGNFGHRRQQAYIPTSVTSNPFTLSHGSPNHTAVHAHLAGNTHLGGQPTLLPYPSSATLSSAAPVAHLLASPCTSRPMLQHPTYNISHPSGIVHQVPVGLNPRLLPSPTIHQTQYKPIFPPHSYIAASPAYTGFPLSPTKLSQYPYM
T2 sequence (P51617 whole entry): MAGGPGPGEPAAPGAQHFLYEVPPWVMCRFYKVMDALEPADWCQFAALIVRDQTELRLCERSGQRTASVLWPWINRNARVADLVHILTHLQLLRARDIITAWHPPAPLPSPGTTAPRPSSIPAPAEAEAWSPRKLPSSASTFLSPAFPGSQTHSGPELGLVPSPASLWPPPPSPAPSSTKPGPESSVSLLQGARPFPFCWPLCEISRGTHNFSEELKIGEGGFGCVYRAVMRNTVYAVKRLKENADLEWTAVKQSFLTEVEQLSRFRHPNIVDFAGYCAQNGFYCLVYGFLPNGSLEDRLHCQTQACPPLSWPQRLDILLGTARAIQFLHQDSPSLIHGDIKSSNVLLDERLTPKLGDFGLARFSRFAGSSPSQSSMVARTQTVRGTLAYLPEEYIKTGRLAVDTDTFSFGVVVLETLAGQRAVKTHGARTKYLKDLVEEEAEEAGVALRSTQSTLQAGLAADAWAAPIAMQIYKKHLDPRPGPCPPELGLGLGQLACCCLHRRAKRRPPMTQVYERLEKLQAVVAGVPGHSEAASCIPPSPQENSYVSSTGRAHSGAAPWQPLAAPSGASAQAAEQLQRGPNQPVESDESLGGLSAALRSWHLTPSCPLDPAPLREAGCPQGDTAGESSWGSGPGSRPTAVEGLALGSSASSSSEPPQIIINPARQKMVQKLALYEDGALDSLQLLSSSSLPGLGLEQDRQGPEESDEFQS
T1 sequence (Q9UIK4 whole entry): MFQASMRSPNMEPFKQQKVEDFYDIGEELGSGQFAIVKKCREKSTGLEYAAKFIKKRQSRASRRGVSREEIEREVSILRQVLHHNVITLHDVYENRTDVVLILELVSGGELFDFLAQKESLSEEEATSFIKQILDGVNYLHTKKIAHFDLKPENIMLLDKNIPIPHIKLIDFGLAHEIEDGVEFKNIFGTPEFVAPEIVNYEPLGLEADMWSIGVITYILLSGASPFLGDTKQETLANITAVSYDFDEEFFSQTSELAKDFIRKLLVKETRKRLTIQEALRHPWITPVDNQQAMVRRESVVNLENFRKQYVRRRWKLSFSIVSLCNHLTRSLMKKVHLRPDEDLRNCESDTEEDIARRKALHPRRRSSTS
T3 sequence (P11309 whole entry): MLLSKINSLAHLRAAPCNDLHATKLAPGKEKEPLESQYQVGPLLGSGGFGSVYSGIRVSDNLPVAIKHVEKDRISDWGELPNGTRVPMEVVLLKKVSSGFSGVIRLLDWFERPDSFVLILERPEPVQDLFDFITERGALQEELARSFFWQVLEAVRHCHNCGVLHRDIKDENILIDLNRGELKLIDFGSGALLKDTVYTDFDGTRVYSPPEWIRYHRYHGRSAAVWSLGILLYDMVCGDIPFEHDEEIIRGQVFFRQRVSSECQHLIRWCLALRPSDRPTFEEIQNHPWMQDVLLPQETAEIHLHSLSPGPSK
T6 sequence (O43293 whole entry): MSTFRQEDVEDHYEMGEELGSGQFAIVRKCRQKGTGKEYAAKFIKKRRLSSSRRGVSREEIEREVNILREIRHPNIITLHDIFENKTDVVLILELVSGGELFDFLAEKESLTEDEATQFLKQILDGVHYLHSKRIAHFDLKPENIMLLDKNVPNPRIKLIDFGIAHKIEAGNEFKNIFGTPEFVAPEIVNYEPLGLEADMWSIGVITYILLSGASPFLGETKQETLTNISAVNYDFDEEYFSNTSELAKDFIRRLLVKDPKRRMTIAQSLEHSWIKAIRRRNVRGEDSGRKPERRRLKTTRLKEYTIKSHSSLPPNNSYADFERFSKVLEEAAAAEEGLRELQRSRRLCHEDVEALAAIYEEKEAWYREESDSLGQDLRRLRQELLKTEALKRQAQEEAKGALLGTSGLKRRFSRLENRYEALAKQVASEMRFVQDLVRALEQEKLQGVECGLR

As a reminder, the IC50 is the point on the concentration scale where inhibition reaches its midpoint. As a reminder, the Kd is the concentration at which binding is half-saturated. `O=C1Nc2c(ccc3c2CCCC3)C1=NO` [Compound 5a, 3-(Hydroxyimino)-1,3,6,7,8,9-hexahydro-2H-benzo[g]indol-2-one]: the IC50 is 6000 ± 1300 nM in assay [1] (24 h); under 6100 nM in assay [1] (Homo sapiens, THP-1, 24 h); 48300 ± 4400 nM in the assay on IL-6 production. The dissociation constant Kd at DAPK2 was 7700 ± 1100 nM; at PIM1 it was 1800 ± 100 nM; at HIPK3, 1300 ± 300 nM; on DAPK1, 13500 ± 700 nM; at DAPK3 it was 20500 ± 3500 nM; on HIPK2, 730 ± 640 nM. The “Kd (µM)” value at IRAK1 (setting [3]) is “N.B”. Also, in assay [2], the “inhibition of secretion of IL-1α, IL-1β, IL-6, TNF and MCP-1” value was “less effective”.

The term inhibition denotes the percentage by which the read-out fell short of the control. As for `O=C1Nc2c(cc([N+](=O)[O-])c3c2CCCC3)C1=NO` [Compound 5d, 3-(Hydroxyimino)-5-nitro-1,3,6,7,8,9-hexahydro-2H-benzo[g]indol-2-one], the IC50 in assay [1] (24 h) was 5500 ± 1400 nM; in assay [1] (Homo sapiens, THP-1, 24 h), under 6100 nM; with IL-6 production it was 12600 ± 3200 nM. For the same molecule, the inhibition at 10 µM at DAPK2 (10 μM) worked out at 98.9%; on IRAK1 (10 μM), 99.2%; on PIM1 (10 μM), 98.2%; on HIPK3 (10 μM), 100%; at DAPK1 (10 μM), 96.3%; at DAPK3 (10 μM), 98.5%. Further, the inhibition at 10 µM on HIPK2 (10 μM) worked out at 99.7%. Besides, the Kd is 200 ± 42 nM at DAPK2; 670 ± 113 nM on IRAK1 (setting [3]); 122 ± 54 nM at PIM1; 135 ± 70 nM on HIPK3; 290 ± 20 nM on DAPK1; 590 ± 28 nM at DAPK3. The Kd on HIPK2 worked out at 295 ± 92 nM. For the same molecule, in assay [2], the “inhibition of secretion of IL-1α, IL-1β, IL-6, TNF and MCP-1” value is reported as “inhibited”.
